ChEMBL document CHEMBL3885861, “Open TG-GATES”

Organism: Rattus norvegicus
Experiment: Open TG-GATES - Regimen: Single
Assay type: toxicity, organism-based, Sprague-Dawley
Design: regimen Single, gender Male, age 6 weeks
Settings: in vivo, po, 100 mg/kg, route gavage, dose level Low; for APTT / Bas / Eos / Fbg / Hb / Ht / Lym / MCV / Mono / Neu / PT / Plat / RBC / Ret / WBC / MCH / MCHC: tissue Blood; for KIDNEY_L / KIDNEY_R / KIDNEY_TOTAL: tissue Kidney; for LIVER: tissue Liver; for ALP / ALT / AST / BUN / CRE / Ca / DBIL / GLC / IP / K / LDH / Na / PL / RALB / TBIL / TC / TG / TP / gamma-GTP: tissue Plasma

O=C(O)c1cn(C2CC2)c2cc(N3CCNCC3)c(F)cc2c1=O [CIPROFLOXACIN]
TERMINAL_BW (3 h): 185.5 g
APTT (3 h): 16.8 s
Bas (3 h): 0%
Eos (3 h): 0.8%
Fbg (3 h): 213 mg/dL
Hb (3 h): 12.9 g/dL
Ht (3 h): 38.6%
Lym (3 h): 78.4%
MCV (3 h): 67.5 fL
Mono (3 h): 8.4%
Neu (3 h): 12.8%
PT (3 h): 12.3 s
Plat (3 h): 104.3 x10_4/uL
RBC (3 h): 572.8 x10_4/ul
Ret (3 h): 10.8%
WBC (3 h): 106 x10_2/uL
KIDNEY_L (3 h): 0.8 g
KIDNEY_R (3 h): 0.9 g
KIDNEY_TOTAL (3 h): 1.7 g
LIVER (3 h): 9.1 g
ALP (3 h): 856.2 IU/L
ALT (3 h): 35 IU/L
AST (3 h): 68.6 IU/L
BUN (3 h): 12.4 mg/dL
CRE (3 h): 0.5 mg/dL
Ca (3 h): 11.2 mg/dL
DBIL (3 h): 0.018 mg/dL
GLC (3 h): 192 mg/dL
IP (3 h): 9.8 mg/dL
K (3 h): 4.9 meq/L
LDH (3 h): 81.4 IU/L
Na (3 h): 139 meq/L
PL (3 h): 144.4 mg/dL
RALB (3 h): 3.7 g/dL
TBIL (3 h): 0.4 mg/dL
TC (3 h): 84.6 mg/dL
TG (3 h): 45.6 mg/dL
TP (3 h): 5.5 g/dL
gamma-GTP (3 h): 1.4 IU/L
TERMINAL_BW (6 h): 179.2 g
APTT (6 h): 17.2 s
Bas (6 h): 0%
Eos (6 h): 0.4%
Fbg (6 h): 216.6 mg/dL
Hb (6 h): 13 g/dL
Lym (6 h): 73%
MCH (6 h): 21.4 pg
MCHC (6 h): 33.2%
MCV (6 h): 64.5 fL
Mono (6 h): 6%
PT (6 h): 12.4 s
Plat (6 h): 102.1 x10_4/uL
RBC (6 h): 608.4 x10_4/ul
Ret (6 h): 10.5%
WBC (6 h): 119.3 x10_2/uL
KIDNEY_L (6 h): 0.9 g
KIDNEY_R (6 h): 0.9 g
KIDNEY_TOTAL (6 h): 1.7 g
LIVER (6 h): 8.1 g
ALP (6 h): 779.4 IU/L
ALT (6 h): 33.6 IU/L
AST (6 h): 70.4 IU/L
BUN (6 h): 10.8 mg/dL
CRE (6 h): 0.5 mg/dL
Ca (6 h): 11.4 mg/dL
DBIL (6 h): 0.05 mg/dL
GLC (6 h): 182.4 mg/dL
IP (6 h): 10.3 mg/dL
K (6 h): 5.4 meq/L
LDH (6 h): 98 IU/L
Na (6 h): 138.8 meq/L
PL (6 h): 128.2 mg/dL
RALB (6 h): 3.9 g/dL
TBIL (6 h): 0.3 mg/dL
TC (6 h): 71.4 mg/dL
TG (6 h): 39.8 mg/dL
TP (6 h): 5.6 g/dL
gamma-GTP (6 h): 1 IU/L
TERMINAL_BW (9 h): 174.2 g
APTT (9 h): 16.2 s
Bas (9 h): 0%
Eos (9 h): 1%
Fbg (9 h): 215 mg/dL
Hb (9 h): 13.5 g/dL
Lym (9 h): 77.2%
MCV (9 h): 67.9 fL
Mono (9 h): 5.2%
Neu (9 h): 17%
PT (9 h): 11.5 s
Plat (9 h): 100.5 x10_4/uL
RBC (9 h): 605.8 x10_4/ul
Ret (9 h): 9.9%
WBC (9 h): 77 x10_2/uL
KIDNEY_L (9 h): 0.9 g
KIDNEY_R (9 h): 0.9 g
KIDNEY_TOTAL (9 h): 1.8 g
LIVER (9 h): 7.3 g
ALP (9 h): 813.2 IU/L
ALT (9 h): 33.6 IU/L
AST (9 h): 68.8 IU/L
BUN (9 h): 11 mg/dL
CRE (9 h): 0.5 mg/dL
Ca (9 h): 10.9 mg/dL
DBIL (9 h): 0.066 mg/dL
GLC (9 h): 190 mg/dL
IP (9 h): 11.5 mg/dL
K (9 h): 4.9 meq/L
LDH (9 h): 94.2 IU/L
Na (9 h): 139.6 meq/L
PL (9 h): 142.4 mg/dL
RALB (9 h): 3.8 g/dL
TBIL (9 h): 0.2 mg/dL
TC (9 h): 88.4 mg/dL
TP (9 h): 5.6 g/dL
gamma-GTP (9 h): 1.4 IU/L
TERMINAL_BW (24 h): 191.7 g
Bas (24 h): 0%
Eos (24 h): 1%
Fbg (24 h): 218 mg/dL
Hb (24 h): 13.5 g/dL
Ht (24 h): 40.5%
Lym (24 h): 77%
MCH (24 h): 22.1 pg
MCHC (24 h): 33.4%
MCV (24 h): 66.3 fL
Mono (24 h): 7%
Neu (24 h): 15%
Plat (24 h): 105.4 x10_4/uL
RBC (24 h): 610.4 x10_4/ul
Ret (24 h): 9.2%
WBC (24 h): 102.8 x10_2/uL
KIDNEY_L (24 h): 0.9 g
KIDNEY_R (24 h): 0.9 g
KIDNEY_TOTAL (24 h): 1.7 g
LIVER (24 h): 8 g
ALP (24 h): 953.6 IU/L
ALT (24 h): 40.4 IU/L
AST (24 h): 74.6 IU/L
BUN (24 h): 17.2 mg/dL
CRE (24 h): 0.5 mg/dL
Ca (24 h): 11.2 mg/dL
DBIL (24 h): 0.058 mg/dL
GLC (24 h): 191.6 mg/dL
IP (24 h): 9.2 mg/dL
K (24 h): 4.7 meq/L
Na (24 h): 139.4 meq/L
PL (24 h): 161.4 mg/dL
RALB (24 h): 3.8 g/dL
TBIL (24 h): 0.3 mg/dL
TC (24 h): 100 mg/dL
TP (24 h): 5.9 g/dL
